Reference: patent publication US11517598B2 (priority 2016, dated 2022)

Tests used:
[1] = system: VSVΔ51 in various human and mouse cancer cell lines; assay type: cell-based
[2] = system: VSVΔ51 in various human and mouse cancer cell lines resistant to VSVΔ51 infection; assay type: cell-based

With Sodium orthovanadate the plaque size [1] was “substantially increased plaque size” and the “VSVΔ51 infection and viral titer” value [2] was “Comparable results”.
